# Measured values from patent US11512097B2, “Heterocyclic compounds as Delta-5 desaturase inhibitors and methods of use” (Amgen Inc., priority 2019, dated 2022).
# pIC50: −log10 of the molar value.
# Molecular target: T1, Delta-5-Desaturase (D5D), membrane preparations of D5D-overexpressing HEK293 6E cells (Homo sapiens, UniProt O60427)
# T1 construct: expressed in transfected cells; host or cells: HEK293 6E cells (membrane preparation)
# Experiment: In vitro measurement of Delta-5-Desaturase inhibitory activity using DGLA-CoA and Arachidonyl-CoA mass spectrometric assays
# Format: biochemical
# Details: D5D membrane 10 μg/mL, one-hour incubation, average of at least two independent runs
# Procedure, shortened: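 Substrate mix (0.01 mM DGLA with NADH, ATP, coenzyme A) was incubated 1 h at room temperature with HEK293 6E D5D membranes at 10 μg/mL final, pH 7.5. Negative-mode SPE-MS/MS monitored DGLA-CoA (m/z 526.6) and arachidonyl-CoA (m/z 525.6). Inhibition normalised to DMSO and no-enzyme wells gave IC50s, mean of ≥2 runs.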
# T1 sequence (O60427 whole entry, species assumed): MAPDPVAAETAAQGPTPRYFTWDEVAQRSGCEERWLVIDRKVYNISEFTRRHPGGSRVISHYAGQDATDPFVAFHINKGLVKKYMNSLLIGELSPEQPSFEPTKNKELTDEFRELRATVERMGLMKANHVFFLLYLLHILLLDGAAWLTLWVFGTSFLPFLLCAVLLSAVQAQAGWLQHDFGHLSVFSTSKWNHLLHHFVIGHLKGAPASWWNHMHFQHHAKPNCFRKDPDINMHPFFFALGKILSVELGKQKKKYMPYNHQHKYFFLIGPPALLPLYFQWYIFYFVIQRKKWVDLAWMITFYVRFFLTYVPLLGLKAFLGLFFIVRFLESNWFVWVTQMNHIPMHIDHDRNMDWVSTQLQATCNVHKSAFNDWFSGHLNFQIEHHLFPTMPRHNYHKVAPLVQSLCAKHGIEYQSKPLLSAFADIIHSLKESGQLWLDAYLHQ
row,SMILES,pIC50
1,"CN1C(=O)Cn2c1nc(C(F)(F)F)c(-c1cnn(CC(F)(F)C(F)(F)F)c1)c2=O [Example 3, 1-methyl-6-[1-(2,2,3,3,3-pentafluoropropyl)-1H-pyrazol-4-yl]-7-(trifluoromethyl)-1H,2H,3H,5H-imidazo[1,2-a]pyrimidine-2,5-dione]",7.59
2,"Cc1nn2c(=O)c(-c3cnn(CCC(F)(F)F)c3)c(C(F)(F)F)nc2s1 [Example 20, 2-methyl-7-(trifluoromethyl)-6-[1-(3,3,3-trifluoropropyl)-1H-pyrazol-4-yl]-5H-[1,3,4]thiadiazolo[3,2-a]pyrimidin-5-one]",7.48
3,"Cc1cn2c(=O)c(-c3cnn(CC(F)(F)C(F)(F)F)c3)c(C(F)(F)F)nc2n1-c1cnccn1 [Example 95, 2-methyl-6-[1-(2,2,3,3,3-pentafluoropropyl)-1H-pyrazol-4-yl]-1-(pyrazin-2-yl)-7-(trifluoromethyl)-1H,5H-imidazo[1,2-a]pyrimidin-5-one]",6.61
4,"Cc1cn2c(=O)c(-c3cnn(C[C@H]4CC4(F)F)c3)c(C(F)(F)F)nc2[nH]1 (single isomer, unassigned) [Example 107]",7.90
5,"O=c1c(-c2cnn(CC(F)(F)C(F)(F)F)c2)c(C(F)(F)F)nc2n1CC1CC21 (stereo not drawn) [Example 25, 8-[1-(2,2,3,3,3-pentafluoropropyl)-1H-pyrazol-4-yl]-9-(trifluoromethyl)-6,10-diazatricyclo[4.4.0.0^2,4]deca-1(10),8-dien-7-one]",6.45
6,"Cc1cn2c(=O)c(-c3cnn(CC(F)(F)C(F)(F)F)c3)c(C(F)(F)F)nc2n1CC1CC1 [Example 62, 1-(cyclopropylmethyl)-2-methyl-6-[1-(2,2,3,3,3-pentafluoropropyl)-1H-pyrazol-4-yl]-7-(trifluoromethyl)-1H,5H-imidazo[1,2-a]pyrimidin-5-one]",8.54
7,"Cc1nn2c(=O)c(-c3cnn(CC(F)(F)C(F)(F)F)c3)c(C(F)(F)F)nc2n1C [Example 13, 2,3-dimethyl-6-[1-(2,2,3,3,3-pentafluoropropyl)-1H-pyrazol-4-yl]-5-(trifluoromethyl)-3H,7H-[1,2,4]triazolo[1,5-a]pyrimidin-7-one]",6.60
8,"COCCn1c(C)cn2c(=O)c(-c3cnn(CC(F)(F)C(F)(F)F)c3)c(C(F)(F)F)nc12 [Example 57, 1-(2-methoxyethyl)-2-methyl-6-[1-(2,2,3,3,3-pentafluoropropyl)-1H-pyrazol-4-yl]-7-(trifluoromethyl)-1H,5H-imidazo[1,2-a]pyrimidin-5-one]",6.84
9,"O=c1c(-c2cnn(CC(F)(F)C(F)(F)F)c2)c(C(F)(F)F)nc2scc(C(F)(F)F)n12 [Example 6, 6-[1-(2,2,3,3,3-pentafluoropropyl)-1H-pyrazol-4-yl]-3,7-bis(trifluoromethyl)-5H-[1,3]thiazolo[3,2-a]pyrimidin-5-one]",6.57
10,"O=C1Cn2c(nc(C(F)(F)F)c(-c3cnn(CC(F)(F)C(F)(F)F)c3)c2=O)N1 [Example 47, 6-[1-(2,2,3,3,3-pentafluoropropyl)-1H-pyrazol-4-yl]-7-(trifluoromethyl)-1H,2H,3H,5H-imidazo[1,2-a]pyrimidine-2,5-dione]",5.31
11,"Cc1cn2c(=O)c(-c3cnn(CC4CC4(F)F)c3)c(C(F)(F)F)nc2[nH]1 (racemic) [Example 76, 6-{1-[(2,2-difluorocyclopropyl)methyl]-1H-pyrazol-4-yl}-2-methyl-7-(trifluoromethyl)-1H,5H-imidazo[1,2-a]pyrimidin-5-one]",7.59
12,"Cn1nnn2c(=O)c(-c3cnn(CC(F)(F)C(F)(F)F)c3)c(C(F)(F)F)nc12 [Example 28, 3-methyl-6-[1-(2,2,3,3,3-pentafluoropropyl)-1H-pyrazol-4-yl]-5-(trifluoromethyl)-3H,7H-[1,2,3,4]tetrazolo[1,5-a]pyrimidin-7-one]",8.22
13,"Cc1cn2c(=O)c(-c3cnn(CC(F)(F)C(F)(F)F)c3)c(C(F)(F)F)nc2n1-c1cccc(Cl)n1 [Example 101, 1-(6-chloropyridin-2-yl)-2-methyl-6-[1-(2,2,3,3,3-pentafluoropropyl)-1H-pyrazol-4-yl]-7-(trifluoromethyl)-1H,5H-imidazo[1,2-a]pyrimidin-5-one]",6.40
14,"Cc1cn2c(=O)c(-c3cnn(CC(F)(F)C(F)(F)F)c3)c(C(F)(F)F)nc2[nH]1 [Example 73, 2-methyl-6-[1-(2,2,3,3,3-pentafluoropropyl)-1H-pyrazol-4-yl]-7-(trifluoromethyl)-1H,5H-imidazo[1,2-a]pyrimidin-5-one]",7.45
15,"COc1nn2c(=O)c(-c3cnn(CC(F)(F)C(F)(F)F)c3)c(C(F)(F)F)nc2s1 [Example 43, 2-methoxy-6-[1-(2,2,3,3,3-pentafluoropropyl)-1H-pyrazol-4-yl]-7-(trifluoromethyl)-5H-[1,3,4]thiadiazolo[3,2-a]pyrimidin-5-one]",7.47
16,"Cn1ccn2c(=O)c(-c3cnn(CC(F)(F)C(F)(F)F)c3)c(C(F)(F)F)nc12 [Example 37, 1-methyl-6-[1-(2,2,3,3,3-pentafluoropropyl)-1H-pyrazol-4-yl]-7-(trifluoromethyl)-1H,5H-imidazo[1,2-a]pyrimidin-5-one]",7.94
17,"Cc1cn2c(=O)c(-c3cnn(CC4CC4)c3)c(C(F)(F)F)nc2n1C [Example 61, 6-[1-(cyclopropylmethyl)-1H-pyrazol-4-yl]-1,2-dimethyl-7-(trifluoromethyl)-1H,5H-imidazo[1,2-a]pyrimidin-5-one]",7.13
18,"C[C@@H]1Cn2c(nc(C(F)(F)F)c(-c3cnn(CC(F)(F)C(F)(F)F)c3)c2=O)S1 (single isomer, unassigned) [Example 114]",7.31
19,"Cc1cn2c(=O)c(-c3cnn(CC(F)(F)C(F)(F)F)c3)c(C(F)(F)F)nc2n1CC1COC1 [Example 90, 2-methyl-1-[(oxetan-3-yl)methyl]-6-[1-(2,2,3,3,3-pentafluoropropyl)-1H-pyrazol-4-yl]-7-(trifluoromethyl)-1H,5H-imidazo[1,2-a]pyrimidin-5-one]",6.98
20,"Cc1cn(C)n2c(=O)c(-c3cnn(CC(F)(F)C(F)(F)F)c3)c(C(F)(F)F)nc12 [Example 18, 1,3-dimethyl-6-[1-(2,2,3,3,3-pentafluoropropyl)-1H-pyrazol-4-yl]-5-(trifluoromethyl)-1H,7H-pyrazolo[1,5-a]pyrimidin-7-one]",5.44
21,"Cc1cn2c(=O)c(-c3ccc(OCC(F)(F)F)cc3)c(C(F)(F)F)nc2n1C [Example 54, 1,2-dimethyl-6-[4-(2,2,2-trifluoroethoxy)phenyl]-7-(trifluoromethyl)-1H,5H-imidazo[1,2-a]pyrimidin-5-one]",7.77
22,"Cc1cn2c(=O)c(-c3cnn(CCC(F)(F)F)c3)c(C(F)(F)F)nc2n1CCN(C)C [Example 67, 1-[2-(dimethylamino)ethyl]-2-methyl-7-(trifluoromethyl)-6-[1-(3,3,3-trifluoropropyl)-1H-pyrazol-4-yl]-1H,5H-imidazo[1,2-a]pyrimidin-5-one]",5.83
23,"O=c1c(-c2cnn(CC(F)(F)C(F)(F)F)c2)c(C(F)(F)F)nc2n1CCS2 [Example 22, 6-[1-(2,2,3,3,3-pentafluoropropyl)-1H-pyrazol-4-yl]-7-(trifluoromethyl)-2H,3H,5H-[1,3]thiazolo[3,2-a]pyrimidin-5-one]",7.84
24,"CNCc1nn2c(=O)c(-c3cnn(CC(F)(F)C(F)(F)F)c3)c(C(F)(F)F)nc2s1 [Example 106, 2-[(methylamino)methyl]-6-[1-(2,2,3,3,3-pentafluoropropyl)-1H-pyrazol-4-yl]-7-(trifluoromethyl)-5H-[1,3,4]thiadiazolo[3,2-a]pyrimidin-5-one]",4.21
25,"Cc1cn2c(=O)c(-c3cnn(CC(F)(F)C(F)(F)F)c3)c(C(F)(F)F)nc2n1-c1cncnc1 [Example 99, 2-methyl-6-[1-(2,2,3,3,3-pentafluoropropyl)-1H-pyrazol-4-yl]-1-(pyrimidin-5-yl)-7-(trifluoromethyl)-1H,5H-imidazo[1,2-a]pyrimidin-5-one]",4.44
26,"O=c1c(-c2cnn(CCC(F)(F)F)c2)c(C(F)(F)F)nc2sc(C3CC3)nn12 [Example 12, 2-cyclopropyl-7-(trifluoromethyl)-6-[1-(3,3,3-trifluoropropyl)-1H-pyrazol-4-yl]-5H-[1,3,4]thiadiazolo[3,2-a]pyrimidin-5-one]",6.61
27,"O=c1c(-c2cnn(CC(F)(F)C(F)(F)F)c2)c(C(F)(F)F)nc2sc(CF)nn12 [Example 104, 2-(fluoromethyl)-6-[1-(2,2,3,3,3-pentafluoropropyl)-1H-pyrazol-4-yl]-7-(trifluoromethyl)-5H-[1,3,4]thiadiazolo[3,2-a]pyrimidin-5-one]",7.00
28,"Cn1cc(Cl)n2c(=O)c(-c3cnn(CC(F)(F)C(F)(F)F)c3)c(C(F)(F)F)nc12 [Example 44, 3-chloro-1-methyl-6-[1-(2,2,3,3,3-pentafluoropropyl)-1H-pyrazol-4-yl]-7-(trifluoromethyl)-1H,5H-imidazo[1,2-a]pyrimidin-5-one]",5.49
29,"Cc1cn2c(=O)c(-c3cnn(CC(F)(F)C(F)(F)F)c3)c(C(F)(F)F)nc2n1-c1cn[nH]c1 [Example 103, 2-methyl-6-[1-(2,2,3,3,3-pentafluoropropyl)-1H-pyrazol-4-yl]-1-(1H-pyrazol-4-yl)-7-(trifluoromethyl)-1H,5H-imidazo[1,2-a]pyrimidin-5-one]",6.52
30,"Cc1cn2c(=O)c(-c3cnn(CCC(F)(F)F)c3)c(C(F)(F)F)nc2n1CC#N [Example 87, 2-[2-methyl-5-oxo-7-(trifluoromethyl)-6-[1-(3,3,3-trifluoropropyl)-1H-pyrazol-4-yl]-1H,5H-imidazo[1,2-a]pyrimidin-1-yl]acetonitrile]",8.43
